Paper PMC10834624, “Estrogen receptor α interaction of zearalenone and its phase I metabolite α-zearalenol in combination with soy isoflavones in hERα-HeLa-9903 cells” (Mycotoxin Research, 2023)
Where two headings read alike, the source gives them in different places.

Experiments:
[1] = test system: hERα-HeLa-9903 cells
[2] = biological target: T1, ERα (hERα-HeLa-9903 cells) (Homo sapiens, UniProt P03372); experiment: cell-based; type: cell-based; details: for induced ERα-dependent luciferase expression in concentrations above: abstract; for concentration at which an increase in luciferase activity was initiated: discussion; for Luciferase induction: 1 nM E2=100%
T1 construct: host or cells: hERα-HeLa-9903 (modified human cervical HeLa cell line)
Procedure: The assays were performed in 96-well plates following the instructions of the manufacturer (Promega [2007]). Per well, 10,000 hERα-HeLa-9903 cells in assay medium were seeded and grown for 3 h. […] The substances were previously dissolved in DMSO in […] higher concentrations than the tested concentration, followed by dilution in the assay medium. In case of single substance testing and for the solvent control, DMSO was added to reach 0.1% in the final incubation solutions. Concentrations ranged from 0.001 to 100 nM in case of ZEN and its metabolites and 0.001 to 100 µM in case of ISF, with 1:10 dilution steps in between. […] All experiments were performed in technical triplicates and at least five independent biological replicates.
Following the 24-h incubation, the supernatants were discarded and 100 µL of a ONE-Glo™ EX luciferase incubation solution (1:1 dilution of OGL reagent and EMEM (5% CD-FBS)) was added and shaken for 5 min. Subsequently, 90 µL of the supernatant of each well was transferred to a new, white 96-well plate. The luminescence of the white plate was directly measured with a gain of 140 using the Victor V3 1240 Multilabel Counter from Perkin Elmer (Waltham/MA, USA) or the Cytation 3 Cell Imaging Multi-Mode Reader from Biotek® (Winooski/VT, USA).

[3] = test system: Ishikawa cells, expressing ERα and ERβ; details: 0.001–0.01 nM with GEN, DAI or EQ 0.001–0.1 µM; ref Grgic et al. [2022]; cited from earlier work
[4] = test system: firefly luciferase encoding gene (hERα-HeLa-9903 cells); experiment: RT-qPCR of luciferase mRNA; type: cell-based, human; details: 10 nM, 24 h
Procedure: For the RT-qPCR, cells (hERα-HeLa-9903) were seeded in assay medium in 12-well plates at a density of 150,000 cells and allowed to grow for 24 h. Incubation solutions contained 0.1% DMSO and the test compounds and compound mixtures at various concentrations. After the same incubation time as the OGL-assay (24 h), cells were washed and subsequently the total RNA was extracted following the RNeasy Mini Kit protocol from Qiagen. The following reverse transcription was performed according to the QuantiTect-Reverse-Transcription manual (Qiagen [2009]) to transcribe 1 µg RNA to cDNA. Then, RT-qPCR was performed using primers for the firefly luciferase encoding gene with the following oligonucleotide sequences for reverse primer 5′-[…]-3′ and forward primer 5′-[…]-3′, as well as the endogenous control primers delta-aminolevulinate synthase (1HS_ALAS1_1_SG, QT00073122), actin beta (Hs_ACTB_1_SG, QT00095431) and glyceraldehyde-3-phosphate dehydrogenase (Hs_GAPDH_1_SG, QT00079247) with SYBR green as fluorescent probe. The amplification the following setting was applied: 95 °C for 2 min, followed by 40 repetition cycles of: 95 °C (15 s), 55 °C (15 s), 72 °C (60 s). […] Quantification was performed according to Livak and Schmittgen ([2001]) using the 2-ΔΔCt method resulting in the depiction of fold-changes in comparison to the solvent control.

[5] = test system: hERα-HeLa-9903 cells; experiment: Sulforhodamine B (SRB) assay, cell protein amount; type: cell-based, human; details: 10 µM 4-OH-TAM, 24 h
Procedure: The SRB assay was conducted immediately after the CTB assay. Following the removal of the remaining CTB solution the cells in each well were fixed with 10 µL of a 50% trichloroacetic acid solution in distilled water. The 96-well plates were placed for 1 h into the refrigerator at 4 °C. Upon this cold incubation, the plates were carefully rinsed twice with tap water and then left to dry in a dark surrounding. Once the plates had dried, 50 µL of the SRB solution was pipetted into each well. The dye was left to stain the proteins for 1 h, again in a dark setting at room temperature. Afterwards the dye was rinsed off twice with tap water and twice with a 1% acetic acid solution. […] Once the plates had dried, the SRB solution bound to the protein components of the cells was dissolved in 100 µL of an alkaline Tris base solution (0.30 g tris(hydroxymethyl-) aminomethane solved in 250 mL distilled water) by shaking for 5 min in the plate reader (Victor V3 1240 Multilabel Counter from Perkin Elmer (Waltham/MA, USA) or the Cytation 3 Cell Imaging Multi-Mode Reader from Biotek® (Winooski/VT Vermont, USA)). Subsequently, the absorbance was measured at 570 nm and as for the CTB; the final results were referred to the solvent control (0.1% DMSO) in percentage.

[6] = single mycoestrogen 100 nM, 24 h

T1 sequence (P03372 whole entry): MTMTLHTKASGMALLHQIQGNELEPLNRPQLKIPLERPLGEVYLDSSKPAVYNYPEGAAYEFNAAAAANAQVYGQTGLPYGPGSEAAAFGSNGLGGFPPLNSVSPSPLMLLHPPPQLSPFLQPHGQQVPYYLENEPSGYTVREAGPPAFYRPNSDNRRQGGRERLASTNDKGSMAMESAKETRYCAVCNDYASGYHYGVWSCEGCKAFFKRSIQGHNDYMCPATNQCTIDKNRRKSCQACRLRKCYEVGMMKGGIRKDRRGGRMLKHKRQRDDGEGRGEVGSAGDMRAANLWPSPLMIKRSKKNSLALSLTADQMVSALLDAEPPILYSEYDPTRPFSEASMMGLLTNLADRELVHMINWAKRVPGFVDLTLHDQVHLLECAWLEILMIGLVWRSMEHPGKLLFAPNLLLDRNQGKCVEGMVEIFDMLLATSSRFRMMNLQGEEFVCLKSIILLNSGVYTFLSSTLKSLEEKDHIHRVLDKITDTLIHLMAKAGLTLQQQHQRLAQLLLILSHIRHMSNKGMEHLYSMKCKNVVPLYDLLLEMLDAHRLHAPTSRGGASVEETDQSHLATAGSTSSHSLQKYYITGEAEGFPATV

Structure (SMILES): O=c1c(-c2ccc(O)cc2)coc2cc(O)ccc12 [DAI, daidzein]
- metabolic activity (CTB) vs solvent control [1]: no significant difference was observed
- transcriptional activity compared to E2 after calculating the difference between 4-OH-TAM treated and untreated samples [2]: higher transcriptional activity

Structure (SMILES): C[C@H]1CCC[C@H](O)CCCCCc2cc(O)cc(O)c2C(=O)O1 [α-zearalanol]
- estrogenic response in combination compared to single substances [3]: significantly enhanced the estrogenic response

Structure (SMILES): C[C@H]1CCCC(=O)CCC/C=C/c2cc(O)cc(O)c2C(=O)O1 [ZEN, zearalenone]
- luciferase mRNA levels [4]: induce luciferase mRNA levels significantly
- estrogenic response in combination compared to single substances [3]: significantly enhanced the estrogenic response
- EC50 [2]: 24.4 ± 0.4 nM
- induced ERα-dependent luciferase expression in concentrations above [2]: above 1 nM
- concentration at which an increase in luciferase activity was initiated [2]: 0.1 nM
- Luciferase induction [2, 6]: 86%

Structure (SMILES): O=c1c(-c2ccc(O)cc2)coc2cc(O)cc(O)c12 [GEN, genistein]
- metabolic activity (CTB) vs solvent control [1]: no significant difference was observed

Structure (SMILES): CC/C(=C(\c1ccc(O)cc1)c1ccc(OCCN(C)C)cc1)c1ccccc1 [4-OH-TAM, (Z)-4-hydroxytamoxifen]
- protein content (SRB) [5]: tendency to decrease the protein content

Structure (SMILES): Oc1ccc([C@H]2COc3cc(O)ccc3C2)cc1 [EQ, S-equol]
- metabolic activity (CTB) vs solvent control [1]: no significant difference was observed
- EC50 ([2]; isoflavones, 24 h, read-out: EC50 (sigmoidal dose-response curve fit of luciferase induction)): 1600 ± 200 nM
- Luciferase induction ([2]; single isoflavone 10 μM, 24 h): 334%

Structure (SMILES): C[C@H]1CCC[C@H](O)CCC/C=C/c2cc(O)cc(O)c2C(=O)O1 [α-ZEL, α-zearalenol]
- estrogenic response in combination compared to single substances [3]: significantly enhanced the estrogenic response
- potency to induce luciferase compared to ZEN ([2]; 0.01 to 10 nM): higher potency
- induced ERα-dependent luciferase expression in concentrations above [2]: > 10 pM
- concentration at which an increase in luciferase activity was initiated [2]: 0.01 nM
- EC50 ([2]; mycoestrogens, 24 h, read-out: EC50 (sigmoidal dose-response curve fit of luciferase induction)): 0.057 ± 0.004 nM
- Luciferase induction [2, 6]: 95%
